According to PMC3961306, “Comparison of the Cancer Gene Targeting and Biochemical Selectivities of All Targeted Kinase Inhibitors Approved for Clinical Use” (PLoS ONE, 2014):

Legend:
Experiment in all cases: Kinase profiling in a biochemical assay panel (mobility shift assays and ELISA), %-inhibition at 1 μM; selectivity entropy
[1] = biological target: panel of more than 300 wild-type and mutant kinases (313 kinase panel) (Homo sapiens, UniProt Q14289)
[2] = biological target: panel of more than 300 wild-type and mutant kinases (313 kinase panel) (Homo sapiens, UniProt P41279); settings: kinase COT; compound at 1 μM
panel of more than 300 wild-type and mutant kinases (313 kinase panel) (Homo sapiens, UniProt P41279), sequence (P41279 whole entry, change not shown): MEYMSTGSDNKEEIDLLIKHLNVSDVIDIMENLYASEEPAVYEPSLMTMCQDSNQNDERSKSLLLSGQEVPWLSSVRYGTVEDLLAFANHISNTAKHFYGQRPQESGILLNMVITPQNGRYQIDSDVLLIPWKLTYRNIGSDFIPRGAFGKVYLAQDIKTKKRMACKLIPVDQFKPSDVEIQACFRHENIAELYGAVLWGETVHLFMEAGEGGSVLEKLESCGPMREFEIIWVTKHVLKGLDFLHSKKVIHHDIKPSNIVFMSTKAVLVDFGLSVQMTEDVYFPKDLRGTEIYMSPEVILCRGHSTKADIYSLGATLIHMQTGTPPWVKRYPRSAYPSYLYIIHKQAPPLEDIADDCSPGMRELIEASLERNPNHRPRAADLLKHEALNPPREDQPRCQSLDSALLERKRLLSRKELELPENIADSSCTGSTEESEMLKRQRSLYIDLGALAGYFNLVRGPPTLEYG

[3] = biological target: panel of more than 300 wild-type and mutant kinases (313 kinase panel) (Homo sapiens, UniProt Q13464)
[4] = biological target: T1, panel of more than 300 wild-type and mutant kinases (313 kinase panel) (Homo sapiens, UniProt P52333); settings: kinase JAK3; compound at 1 μM
T1 sequence (P52333 1-1124): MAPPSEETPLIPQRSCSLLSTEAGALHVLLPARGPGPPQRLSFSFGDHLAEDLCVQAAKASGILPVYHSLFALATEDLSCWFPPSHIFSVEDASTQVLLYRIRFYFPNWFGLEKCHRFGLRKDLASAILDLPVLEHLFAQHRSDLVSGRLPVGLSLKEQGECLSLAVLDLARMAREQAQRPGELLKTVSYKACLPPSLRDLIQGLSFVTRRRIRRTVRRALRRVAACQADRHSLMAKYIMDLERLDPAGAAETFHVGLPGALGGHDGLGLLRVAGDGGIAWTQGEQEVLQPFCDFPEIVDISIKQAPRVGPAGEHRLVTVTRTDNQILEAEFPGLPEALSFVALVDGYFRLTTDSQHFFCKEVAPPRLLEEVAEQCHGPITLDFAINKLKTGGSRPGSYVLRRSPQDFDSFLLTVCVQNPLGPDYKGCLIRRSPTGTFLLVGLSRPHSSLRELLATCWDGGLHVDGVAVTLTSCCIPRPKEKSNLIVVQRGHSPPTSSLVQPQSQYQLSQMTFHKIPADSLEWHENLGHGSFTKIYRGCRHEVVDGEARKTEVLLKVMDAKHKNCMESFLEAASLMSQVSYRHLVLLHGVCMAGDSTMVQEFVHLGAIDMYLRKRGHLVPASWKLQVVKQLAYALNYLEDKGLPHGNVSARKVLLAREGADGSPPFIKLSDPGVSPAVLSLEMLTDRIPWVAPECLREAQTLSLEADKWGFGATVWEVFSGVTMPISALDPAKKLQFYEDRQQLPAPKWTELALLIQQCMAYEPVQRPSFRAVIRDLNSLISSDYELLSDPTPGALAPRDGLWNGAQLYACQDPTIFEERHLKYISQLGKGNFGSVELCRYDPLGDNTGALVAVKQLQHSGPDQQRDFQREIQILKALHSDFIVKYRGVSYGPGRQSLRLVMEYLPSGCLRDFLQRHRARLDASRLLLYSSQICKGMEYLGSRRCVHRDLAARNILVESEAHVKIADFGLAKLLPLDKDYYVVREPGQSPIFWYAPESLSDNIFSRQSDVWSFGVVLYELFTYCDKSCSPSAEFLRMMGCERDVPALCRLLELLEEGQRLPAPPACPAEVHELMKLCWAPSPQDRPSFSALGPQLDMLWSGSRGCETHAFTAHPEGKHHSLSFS

[5] = biological target: panel of more than 300 wild-type and mutant kinases (313 kinase panel) (Homo sapiens, UniProt Q14012); settings: kinase CaMK1α; 1 μM compound
[6] = biological target: panel of more than 300 wild-type and mutant kinases (313 kinase panel) (Homo sapiens, UniProt P11309); settings: kinase PIM1; 1 μM
[7] = biological target: panel of more than 300 wild-type and mutant kinases (313 kinase panel) (Homo sapiens, UniProt P49760)
[8] = biological target: T2, panel of more than 300 wild-type and mutant kinases (313 kinase panel) (Homo sapiens, UniProt Q96BR1)
T2 sequence (Q96BR1 1-496): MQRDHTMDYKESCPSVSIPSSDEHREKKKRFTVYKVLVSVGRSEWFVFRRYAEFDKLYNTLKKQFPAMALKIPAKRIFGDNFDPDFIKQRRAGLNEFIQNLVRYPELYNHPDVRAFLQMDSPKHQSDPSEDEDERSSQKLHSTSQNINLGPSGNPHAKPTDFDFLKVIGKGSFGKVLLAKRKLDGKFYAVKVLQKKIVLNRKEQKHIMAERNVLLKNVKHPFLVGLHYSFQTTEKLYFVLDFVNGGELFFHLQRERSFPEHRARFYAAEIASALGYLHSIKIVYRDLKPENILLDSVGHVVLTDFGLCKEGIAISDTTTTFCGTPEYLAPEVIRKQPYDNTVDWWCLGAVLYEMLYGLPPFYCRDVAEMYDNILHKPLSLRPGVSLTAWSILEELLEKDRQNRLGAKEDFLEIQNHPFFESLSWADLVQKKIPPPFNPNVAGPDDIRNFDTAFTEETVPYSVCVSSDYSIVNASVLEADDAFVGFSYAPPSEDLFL

[9] = biological target: panel of more than 300 wild-type and mutant kinases (313 kinase panel) (Homo sapiens, UniProt P31751); settings: kinase AKT2; 1 μM compound
panel of more than 300 wild-type and mutant kinases (313 kinase panel) (Homo sapiens, UniProt P31751), sequence (P31751 whole entry, change not shown): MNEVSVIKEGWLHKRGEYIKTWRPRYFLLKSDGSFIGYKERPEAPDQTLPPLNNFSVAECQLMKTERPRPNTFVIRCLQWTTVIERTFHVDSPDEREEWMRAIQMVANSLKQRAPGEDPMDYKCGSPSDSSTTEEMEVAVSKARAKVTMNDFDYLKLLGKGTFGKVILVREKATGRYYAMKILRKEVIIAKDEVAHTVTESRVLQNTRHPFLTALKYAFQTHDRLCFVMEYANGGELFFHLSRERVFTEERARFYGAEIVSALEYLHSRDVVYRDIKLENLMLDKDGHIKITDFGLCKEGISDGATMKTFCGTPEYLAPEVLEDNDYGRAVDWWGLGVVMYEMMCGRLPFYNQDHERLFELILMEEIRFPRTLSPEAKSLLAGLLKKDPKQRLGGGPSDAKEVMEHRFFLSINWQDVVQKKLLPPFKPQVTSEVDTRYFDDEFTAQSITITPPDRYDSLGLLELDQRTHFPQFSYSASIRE

[10] = biological target: panel of more than 300 wild-type and mutant kinases (313 kinase panel) (Homo sapiens, UniProt P49840)

panel of more than 300 wild-type and mutant kinases (313 kinase panel) (Homo sapiens, UniProt Q14289), sequence (Q14289 whole entry, change not shown): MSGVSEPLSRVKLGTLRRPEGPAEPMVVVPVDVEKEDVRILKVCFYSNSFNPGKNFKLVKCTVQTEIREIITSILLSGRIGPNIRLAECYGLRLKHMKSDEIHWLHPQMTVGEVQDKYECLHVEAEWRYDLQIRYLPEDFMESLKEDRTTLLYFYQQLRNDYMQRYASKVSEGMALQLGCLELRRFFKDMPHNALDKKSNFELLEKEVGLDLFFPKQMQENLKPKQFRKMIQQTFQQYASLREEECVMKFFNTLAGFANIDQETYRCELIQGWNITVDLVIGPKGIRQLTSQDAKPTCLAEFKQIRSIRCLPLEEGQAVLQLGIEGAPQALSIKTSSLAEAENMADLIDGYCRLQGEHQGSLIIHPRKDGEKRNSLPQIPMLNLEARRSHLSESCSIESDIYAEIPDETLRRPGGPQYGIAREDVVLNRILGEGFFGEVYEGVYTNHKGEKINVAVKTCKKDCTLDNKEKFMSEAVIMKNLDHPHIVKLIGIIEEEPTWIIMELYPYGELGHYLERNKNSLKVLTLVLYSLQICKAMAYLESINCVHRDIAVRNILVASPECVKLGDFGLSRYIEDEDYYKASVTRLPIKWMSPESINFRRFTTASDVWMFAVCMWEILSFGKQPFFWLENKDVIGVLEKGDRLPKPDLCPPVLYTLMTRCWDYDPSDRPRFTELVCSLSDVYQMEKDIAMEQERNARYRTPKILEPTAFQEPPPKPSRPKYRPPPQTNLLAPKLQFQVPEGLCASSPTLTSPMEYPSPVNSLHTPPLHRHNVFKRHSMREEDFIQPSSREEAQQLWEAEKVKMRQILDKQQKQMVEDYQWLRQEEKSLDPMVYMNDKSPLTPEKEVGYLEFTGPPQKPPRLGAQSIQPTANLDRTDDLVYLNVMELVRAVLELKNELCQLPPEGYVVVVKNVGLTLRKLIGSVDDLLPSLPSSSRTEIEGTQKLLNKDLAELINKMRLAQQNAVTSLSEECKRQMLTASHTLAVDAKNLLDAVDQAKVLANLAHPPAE

Row | SMILES | %-inhibition of PYK2 ([1]; kinase PYK2, 1 μM) [%] | %-inhibition of COT [2] [%] | %-inhibition of ROCK1 ([3]; kinase ROCK1, 1 μM) [%] | %-inhibition of JAK3 [4] [%] | %-inhibition, CaMK1α [5] [%] | %-inhibition of PIM1 [6] [%] | %-inhibition, CLK2 ([7]; 1 µM) [%] | %-inhibition of SGK3 ([8]; 1 µM) [%] | %-inhibition, AKT2 [9] [%] | %-inhibition of GSK3α ([10]; kinase GSK3α, compound at 1 μM) [%] | %-inhibition of PYK2 ([1]; 1 µM) [%] | %-inhibition of ROCK1 ([3]; 1 µM) [%] | %-inhibition, CLK2 ([7]; kinase CLK2, 1 μM compound) [%] | %-inhibition of SGK3 ([8]; kinase SGK3, 1 μM) [%] | %-inhibition of GSK3α ([10]; 1 µM) [%]
1 | CS(=O)(=O)CCNCc1ccc(-c2ccc3ncnc(Nc4ccc(OCc5cccc(F)c5)c(Cl)c4)c3c2)o1 [lapatinib] | -0.787 | -0.221 | -2.62 | -6 | 8 | 0.601 | 3.6 | 4.58 | 4.61 | -8 |  |  |  |  | 
2 | Cc1cn(-c2cc(NC(=O)c3ccc(C)c(Nc4nccc(-c5cccnc5)n4)c3)cc(C(F)(F)F)c2)cn1 [nilotinib] |  | 2.3 |  | 2.15 | -15 | 8 |  |  | 12 | -0.491 | -63 | -17 | 1.71 | 15 | 
3 | Cc1ccc(Nc2nccc(N(C)c3ccc4c(C)n(C)nc4c3)n2)cc1S(N)(=O)=O [pazopanib] | 39 | -0.233 | -1.24 | 38 | 5.59 | -1.49 |  |  | -2 | 6.5 |  |  | 0.914 | -3.17 | 
4 | CNC(=O)c1cc(Oc2ccc(NC(=O)Nc3ccc(Cl)c(C(F)(F)F)c3)c(F)c2)ccn1 [regorafenib] | -0.496 | -4 | 11 | 31 | -6 | -9 |  |  | -4 | 37 |  |  | -24 | -8 | 
5 | CO[C@H]1C[C@@H]2CC[C@@H](C)[C@@](O)(O2)C(=O)C(=O)N2CCCC[C@H]2C(=O)O[C@H]([C@H](C)C[C@@H]2CC[C@@H](OC(=O)C(C)(CO)CO)[C@H](OC)C2)CC(=O)[C@H](C)/C=C(\C)[C@@H](O)[C@@H](OC)C(=O)[C@H](C)C[C@H](C)/C=C/C=C/C=C/1C [temsirolimus] | -3 | 8 | -0.679 | -2 | -6.61 | -8 |  |  | -1.77 | -14 |  |  | -4.4 | -4 | 
6 | CC(=O)Nc1cccc(-n2c(=O)n(C3CC3)c(=O)c3c(Nc4ccc(I)cc4F)n(C)c(=O)c(C)c32)c1 [trametinib] | 2.72 | 13 | 3.21 | 6 | -2 | 4.44 |  |  | -8 |  |  |  | -5 | 0.769 | 1.59
7 | COc1cc2c(Nc3ccc(Br)cc3F)ncnc2cc1OCC1CCN(C)CC1 [vandetanib] | 6 | -2.53 | -0.226 | 2.34 | -3 | -9 |  |  | -1.77 | -5.37 |  |  | -18 | -8 | 
8 | CCCS(=O)(=O)Nc1ccc(F)c(C(=O)c2c[nH]c3ncc(-c4ccc(Cl)cc4)cc23)c1F [vemurafenib] | 0.921 | 4.34 | 1.28 | 10 | -3.18 | -3.41 |  |  | -3 | 25 |  |  | -13 | -2.38 | 
